Test results as given in ChEMBL document CHEMBL5154879, “Induction of Genes Implicated in Stress Response and Autophagy by a Novel Quinolin-8-yl-nicotinamide QN523 in Pancreatic Cancer” (J Med Chem, 2022).
The source made the active and inactive calls. The rule behind the calls is not given here.

Key:
[1] = Downregulation of NEURLIB gene expression in human MIA PaCa-2 cells assessed as fold change in NEURLIB expression at 1 uM incubated for 24 hrs by Bru-seq analysis relative to control; type: functional
[2] = Downregulation of SEMA4C gene expression in human MIA PaCa-2 cells assessed as fold change in SEMA4C expression at 1 uM incubated for 24 hrs by Bru-seq analysis relative to control; type: functional
[3] = test system: MIA PaCa-2; test: Induction of apoptosis in human MIA PaCa-2 cells assessed as late apoptotic cells at 0.5 uM incubated for 24 hrs by Annexin V-FITC/PI staining based flow cytometry analysis (reference value: 2.04%); type: functional
[4] = test system: MIA PaCa-2; test: Upregulation of P53 pathway in human MIA PaCa-2 cells by gene set enrichment analysis; type: functional, cell-based
[5] = Upregulation of […] gene expression in human MIA PaCa-2 cells assessed as fold change in […] expression at 1 uM incubated for 24 hrs by Bru-seq analysis relative to control; type: functional
[6] = test system: MIA PaCa-2; test: Induction of cell cycle arrest in human MIA PaCa-2 cells assessed as accumulation of cells in G0/G1 phase at 0.1 uM incubated for 48 hrs by RNase/propidium iodide staining based flow cytometry analysis (reference value: 70.4%); type: functional
[7] = test system: SNU-398; test: Antiproliferative activity against human SNU-398 cells assessed as inhibition of cell growth incubated for 72 hrs by MTT assay; type: functional, cell-based; conditions: SNU-398, 72 h
[8] = test system: MIA PaCa-2; test: Downregulation of E2F target gene expression in human MIA PaCa-2 cells by gene set enrichment analysis; type: functional, cell-based
[9] = Toxicity in NOD/SCID mouse xenografted with human MIA PaCa-2 cells assessed as weight loss at 10 to 20 mg/kg, ip administered five times a week for 44 days; type: organism-based; conditions: in vivo, 1056 h, dose 10-20 mg/kg, time 44 day
[10] = Downregulation of STK1I gene expression in human MIA PaCa-2 cells assessed as fold change in STK1I expression at 1 uM incubated for 24 hrs by Bru-seq analysis relative to control; type: functional
[11] = test system: Hep 3B2; test: Antiproliferative activity against human Hep3B cells assessed as inhibition of cell growth incubated for 72 hrs by MTT assay; type: functional, cell-based
[12] = test system: HCT-116; test: Antiproliferative activity against human HCT-116 cells assessed as inhibition of cell growth incubated for 72 hrs by MTT assay; type: functional, cell-based; conditions: HCT-116, 72 h
[13] = test system: MIA PaCa-2; test: Induction of cell cycle arrest in human MIA PaCa-2 cells assessed as accumulation of cells at S phase at 0.5 uM incubated for 24 hrs by RNase/propidium iodide staining based flow cytometry analysis (Rvb =27.6 %); type: functional
[14] = test system: MIA PaCa-2; test: Induction of apoptosis in human MIA PaCa-2 cells assessed as late apoptotic cells at 0.5 uM incubated for 48 hrs by Annexin V-FITC/PI staining based flow cytometry analysis (reference value: 0.8%); type: functional
[15] = Toxicity in NOD/SCID mouse xenografted with human MIA PaCa- 2 cells assessed as morphological changes in liver at 10 to 20 mg/kg, ip administered five times a week for 44 days by H and E staining based inverted microscopic analysis; type: organism-based; conditions: in vivo, 1056 h, dose 10-20 mg/kg, time 44 day
[16] = Downregulation of ESPL1 gene expression in human MIA PaCa-2 cells assessed as fold change in ESPL1 expression at 1 uM incubated for 24 hrs by Bru-seq analysis relative to control; type: functional
[17] = test system: MIA PaCa-2; test: Induction of apoptosis in human MIA PaCa-2 cells assessed as necrotic cells at 0.1 uM incubated for 24 hrs by Annexin V-FITC/PI staining based flow cytometry analysis (reference value: 2.7%); type: functional
[18] = test system: MIA PaCa-2; test: Antiproliferative activity against human MIA PaCa-2 cells assessed as inhibition of cell growth at 0.1 to 10 uM incubated for 1 to 72 hrs followed by compound washout with PBS and replacement with fresh culture medium and measured after 72 hrs by MTT assay; type: functional, cell-based; conditions: dose 0.1-10 µM, time 1-72 hrs, TDE = time-dependent effect
[19] = test system: BXPC-3; test: Inhibition of colony formation in human BXPC-3 cells at 1 uM incubated for 10 to 14 days by crystal violet staining based assay; type: functional, cell-based; conditions: time 10-14 day
[20] = Cytotoxicity against human HPDE cells assessed as inhibition of cell growth incubated for 72 hrs by MTT assay; type: toxicity, cell-based
[21] = test system: MIA PaCa-2; test: Induction of cell cycle arrest in human MIA PaCa-2 cells assessed as accumulation of cells in G2/M phase at 0.1 uM incubated for 24 hrs by RNase/propidium iodide staining based flow cytometry analysis (reference value: 8.11%); type: functional
[22] = Toxicity in NOD/SCID mouse xenografted with human MIA PaCa-2 cells assessed as weakness at 10 to 20 mg/kg, ip administered five times a week for 44 days; type: organism-based; conditions: in vivo, 1056 h, dose 10-20 mg/kg, time 44 day
[23] = test system: MIA PaCa-2; test: Upregulation of NFkappaB expression in human MIA PaCa-2 cells by gene set enrichment analysis; type: functional, cell-based
[24] = test system: MIA PaCa-2; test: Induction of autophagy in human MIA PaCa-2 cells assessed as accumulation of GABARAPL1 marker gene expression at upto 2 uM incubated for 72 hrs by Western blot analysis; type: functional, cell-based
[25] = test system: MIA PaCa-2; test: Induction of cell cycle arrest in human MIA PaCa-2 cells assessed as accumulation of cells in G0/G1 phase at 0.5 uM incubated for 24 hrs by RNase/propidium iodide staining based flow cytometry analysis (reference value: 64.3%); type: functional
[26] = test system: SNU-475; test: Antiproliferative activity against human SNU-475 cells assessed as inhibition of cell growth incubated for 72 hrs by MTT assay; type: functional, cell-based; conditions: SNU-475, 72 h
[27] = Upregulation of SAT1 gene expression in human MIA PaCa-2 cells assessed as fold change in SAT1 expression at 1 uM incubated for 24 hrs by Bru-seq analysis relative to control; type: functional
[28] = test system: MIA PaCa-2; test: Induction of cell cycle arrest in human MIA PaCa-2 cells assessed as accumulation of cells in G0/G1 phase at 0.5 uM incubated for 48 hrs by RNase/propidium iodide staining based flow cytometry analysis (reference value: 70.4%); type: functional
[29] = test system: MIA PaCa-2; test: Downregulation of G2M checkpoint gene expression in human MIA PaCa-2 cells by gene set enrichment analysis; type: functional, cell-based
[30] = test system: MIA PaCa-2; test: Induction of apoptosis in human MIA PaCa-2 cells assessed as early apoptotic cells at 0.1 uM incubated for 24 hrs by Annexin V-FITC/PI staining based flow cytometry analysis (reference value: 5.1%); type: functional
[31] = test system: MIA PaCa-2; test: Upregulation of CHOP gene expression in human MIA PaCa-2 cells incubated for 72 hrs by Western blot analysis; type: functional, cell-based; conditions: dose <= 600.0 µM, DDE = dose-dependent effect
[32] = test system: MIA PaCa-2; test: Cytotoxicity against human MIA PaCa-2 cells assessed as inhibition of cell growth incubated for 72 hrs by MTT assay; type: functional, cell-based; conditions: MIA PaCa-2, 72 h
[33] = test system: MIA PaCa-2; test: Induction of cell cycle arrest in human MIA PaCa-2 cells assessed as accumulation of cells at S phase at 0.1 uM incubated for 48 hrs by RNase/propidium iodide staining based flow cytometry analysis (Rvb =26.9 %); type: functional
[34] = test system: MIA PaCa-2; test: Additive autophagy activity in human MIA PaCa-2 cells assessed as inhibition of colony formation at 0.001 to 0.1 uM incubated for 7 days in presence of autophagy inhibitor chloroquine by crystal violet staining based assay; type: functional, cell-based; conditions: dose 0.001-0.1 µM, time 7.0 day

O=C(Nc1cccc2cccnc12)c1cnccn1
fold change (FC) [1]: 0.44 | fold change (FC) [2]: 0.39 | Activity [3]: 2.1% | Activity [4]: Active | fold change (FC) [5]: 12.8 | Activity [6]: 62.4% | IC50 [7]: 1.9 µM | Activity [8]: Active | Activity [9]: Non-Toxic | fold change (FC) [10]: 0.4 | IC50 [11]: 0.21 µM | IC50 [12]: 0.1 µM | Activity [13]: 45.1% | Activity [14]: 1.8% | Activity [15]: Non-Toxic | fold change (FC) [16]: 0.4 | Activity [17]: 2.2% | Activity [18]: Tde | inhibition [19]: Active | IC50 at 72 h [20]: 0.55 µM | Activity [21]: 14.9% | Activity [22]: Non-Toxic | Activity [23]: Active | Activity [24]: Active | Activity [25]: 44.5% | IC50 [26]: 2.67 µM | fold change (FC) [27]: 7 | Activity [28]: 31.2% | Activity [29]: Active | Activity [30]: 10.7% | Activity [31]: Dde | IC50 [32]: 0.11 µM | Activity [33]: 29.4% | Activity [34]: Active
